From article PMC7592892, “Anemarsaponin BII inhibits the activity of CYP3A4, 2D6, and 2E1 with human liver microsomes” (Pharmaceutical Biology, 2020)

What was measured:
CYP3A4 [1] = biological target: T1, CYP3A4 (Homo sapiens, UniProt P08684); assay: Time-dependent inhibition of CYP3A4 in HLMs; format: in vitro ADME
T1 construct: marker reactions with specific substrates in human liver microsomes (HLMs); from tissue; host or cells: pooled human liver microsomes
Procedure: (§1) The effect of incubation time on the inhibition of anemarsaponin BII was evaluated with 20 μM anemarsaponin BII. HLMs were preincubated with anemarsaponin BII and the NADPH-generating system for 30 min at 37 °C. Then, an aliquot (20 μL) was transferred to another incubation tube (final volume 200 μL) containing an NADPH-generating system and probe substrates, of which final concentrations were approximate to Km. After incubating for 0, 5, 10, 15 and 30 min, the reaction was terminated with 100 μL acetonitrile internal standard mix and placed on ice. The metabolites were analyzed by HPLC. To obtain the values of KI and Kinact, another incubation with a higher concentration of substrates (approximately 4-fold Km values) was performed in the presence of 0–50 μM anemarsaponin BII for 0, 5, 10, 15 and 30 min.

CYP2C8 = test system: T2, CYP2C8; format: in vitro ADME; conditions: human, microsomes, 100 μM, pH 7.4
T2 construct: marker reactions with specific substrates in human liver microsomes (HLMs); from tissue; host or cells: pooled human liver microsomes
Procedure: (§2) The activity of CYP450s was evaluated by the marker reactions with specific substrates in human liver microsomes (HLMs). The reaction conditions are summarized in Table 1 according to previous studies. The concentration of anemarsaponin BII was 100 μM with the following concentration of specific inhibitors: 10 μM furafylline for CYP1A2, 10 μM tranylcypromine for CYP2A6, 1 μM ketoconazole for CYP3A4, 5 μM montelukast for CYP2C8, 10 μM sulfaphenazole for CYP2C9, 50 μM tranylcypromine for CYP2C19, 10 μM quinidine for CYP2D6, 50 μM clomethiazole for CYP2E1. 200 μL incubation system included 100 mM potassium phosphate buffer (pH 7.4), NADPH generating system (1 mM NADP^+, 10 mM glucose-6-phosphate, 1 U/mL of glucose-6-phosphate dehydrogenase, and 4 mM MgCl2), the appropriate concentration of HLMs, a corresponding probe substrate and anemarsaponin BII (or positive inhibitor for different probe reactions). The HADPH-generating system was added before the incubation to preincubate for 3 min at 37 °C. The reaction was terminated with 100 μL acetonitrile (10% trichloroacetic acid for CYP2A6). Then, the mixture was centrifuged at 12,000 rpm for 10 min, and an aliquot (50 μL) of supernatant was transferred for HPLC analysis with the help of the Agilent 1260 series instrument with DAD and FLD detector according to previous studies. The HPLC conditions for analysis of corresponding metabolites of CYP isoforms are summarized in Table 2 based on previous studies (Lang et al. [2017]; Zhang et al. [2017]). Incubations were performed in triplicate, and results were represented with the mean value. The final microsomal protein concentration and incubation times for the different probe reactions are summarized in Table 1 based on previous studies (Lang et al. [2017]; Wang et al. [2019]). The effect of anemarsaponin BII on the activity of CYPs was evaluated in pooled human liver microsomes according to previous studies (Dong et al. [2018]; Wang et al. [2019]). The residual activity of eight CYP isoforms was first detected with 100 μM anemarsaponin BII in HLMs. Next, CYPs of which the activity was inhibited by anemarsaponin BII was incubated with 0, 2.5, 5, 10, 25, 50 and 100 μM anemarsaponin BII to explore the values of half inhibition concentration (IC50). Additionally, 0–50 μM anemarsaponin BII was incubated with various concentration of probe substrates (20–100 μM testosterone for CYP3A4, 10–50 μM dextromethorphan for CYP2D6, and 25–250 μM chlorzoxazone for CYP2E1) to obtain the values of KI.

CYP2C19 = test system: T3, CYP2C19; format: in vitro ADME; conditions: human, microsomes, 100 μM, pH 7.4
T3 construct: marker reactions with specific substrates in human liver microsomes (HLMs); from tissue; host or cells: pooled human liver microsomes
Procedure: as §2

CYP2C9 = test system: T4, CYP2C9; format: in vitro ADME; conditions: human, microsomes, 100 μM, pH 7.4
T4 construct: marker reactions with specific substrates in human liver microsomes (HLMs); from tissue; host or cells: pooled human liver microsomes
Procedure: as §2

CYP1A2 = test system: T5, CYP1A2; format: in vitro ADME; conditions: human, microsomes, 100 μM, pH 7.4
T5 construct: marker reactions with specific substrates in human liver microsomes (HLMs); from tissue; host or cells: pooled human liver microsomes
Procedure: as §2

CYP2A6 = test system: T6, CYP2A6; format: in vitro ADME; conditions: human, microsomes, 100 μM, pH 7.4
T6 construct: marker reactions with specific substrates in human liver microsomes (HLMs); from tissue; host or cells: pooled human liver microsomes
Procedure: as §2

[2] = rat, in vivo; cited from earlier work
CYP2E1 [3] = biological target: T7, CYP2E1 (Homo sapiens, UniProt P05181); assay: CYP2E1 inhibition in pooled human liver microsomes (chlorzoxazone 6-hydroxylation); format: in vitro ADME; conditions: for IC50: 0-100 μM anemarsaponin BII
T7 construct: marker reactions with specific substrates in human liver microsomes (HLMs); from tissue; host or cells: pooled human liver microsomes
Procedure: (§3) The activity of CYP450s was evaluated by the marker reactions with specific substrates in human liver microsomes (HLMs). The reaction conditions are summarized in Table 1 according to previous studies. The concentration of anemarsaponin BII was 100 μM with the following concentration of specific inhibitors: 10 μM furafylline for CYP1A2, 10 μM tranylcypromine for CYP2A6, 1 μM ketoconazole for CYP3A4, 5 μM montelukast for CYP2C8, 10 μM sulfaphenazole for CYP2C9, 50 μM tranylcypromine for CYP2C19, 10 μM quinidine for CYP2D6, 50 μM clomethiazole for CYP2E1. 200 μL incubation system included 100 mM potassium phosphate buffer (pH 7.4), NADPH generating system (1 mM NADP^+, 10 mM glucose-6-phosphate, 1 U/mL of glucose-6-phosphate dehydrogenase, and 4 mM MgCl2), the appropriate concentration of HLMs, a corresponding probe substrate and anemarsaponin BII (or positive inhibitor for different probe reactions). The HADPH-generating system was added before the incubation to preincubate for 3 min at 37 °C. The reaction was terminated with 100 μL acetonitrile (10% trichloroacetic acid for CYP2A6). Then, the mixture was centrifuged at 12,000 rpm for 10 min, and an aliquot (50 μL) of supernatant was transferred for HPLC analysis with the help of the Agilent 1260 series instrument with DAD and FLD detector according to previous studies. The HPLC conditions for analysis of corresponding metabolites of CYP isoforms are summarized in Table 2 based on previous studies (Lang et al. [2017]; Zhang et al. [2017]).
Incubations were performed in triplicate, and results were represented with the mean value. The final microsomal protein concentration and incubation times for the different probe reactions are summarized in Table 1 based on previous studies (Lang et al. [2017]; Wang et al. [2019]).
The effect of anemarsaponin BII on the activity of CYPs was evaluated in pooled human liver microsomes according to previous studies (Dong et al. [2018]; Wang et al. [2019]). The residual activity of eight CYP isoforms was first detected with 100 μM anemarsaponin BII in HLMs. Next, CYPs of which the activity was inhibited by anemarsaponin BII was incubated with 0, 2.5, 5, 10, 25, 50 and 100 μM anemarsaponin BII to explore the values of half inhibition concentration (IC50). Additionally, 0–50 μM anemarsaponin BII was incubated with various concentration of probe substrates (20–100 μM testosterone for CYP3A4, 10–50 μM dextromethorphan for CYP2D6, and 25–250 μM chlorzoxazone for CYP2E1) to obtain the values of KI.
(§4) The enzyme kinetic parameters for the probe reaction were estimated from the best fit line, using least-squares linear regression of the inverse substrate concentration versus the inverse velocity (Lineweaver–Burk plots), and the mean values were used to calculate Vmax and Km. Inhibition data from the experiments that were conducted using multiple compound concentrations were represented by Dixon plots, and inhibition constant (KI) values were calculated using non-linear regression according to the following equation: Competitive inhibition:v=(VmaxS)/(Km(1+I/KI)+S), Non-competitive inhibition:v=(VmaxS)/[Km+S(1+I/KIKi)] where I is the concentration of the compound, KI is the inhibition constant, S is the concentration of the substrate, and Km is the substrate concentration at half the maximum velocity (Vmax) of the reaction. The mechanism of the inhibition was inspected using the Lineweaver–Burk plots and the enzyme inhibition models. […]

[4] = rat, in vivo, 171.61 mg/kg; cited from earlier work
CYP3A4 [5] = biological target: T1, CYP3A4; assay: CYP3A4 inhibition in pooled human liver microsomes (testosterone 6β-hydroxylation); format: in vitro ADME
Procedure: as §3
(§5) Incubations were performed in triplicate, and results were represented with the mean value. […]
(§6) The effect of anemarsaponin BII on the activity of CYPs was evaluated in pooled human liver microsomes according to previous studies (Dong et al. [2018]; Wang et al. [2019]). The residual activity of eight CYP isoforms was first detected with 100 μM anemarsaponin BII in HLMs. […]
as §4, with “reaction.” for “reaction. The mechanism of the inhibition was inspected using the Lineweaver–Burk plots and the enzyme inhibition models.”

CYP2D6 [6] = biological target: T8, CYP2D6 (Homo sapiens, UniProt P10635); assay: CYP2D6 inhibition in pooled human liver microsomes (dextromethorphan O-demethylation); format: in vitro ADME
T8 construct: marker reactions with specific substrates in human liver microsomes (HLMs); from tissue; host or cells: pooled human liver microsomes
Procedure: as §3, §5, §6
as §4, with “reaction.” for “reaction. The mechanism of the inhibition was inspected using the Lineweaver–Burk plots and the enzyme inhibition models.”

CYP2E1 [7] = biological target: T7, CYP2E1; assay: Time-dependent inhibition of CYP2E1 in HLMs; format: in vitro ADME; conditions: 20 μM anemarsaponin BII, data not shown
Procedure: as §1

CYP2D6 [8] = biological target: T8, CYP2D6; assay: Time-dependent inhibition of CYP2D6 in HLMs; format: in vitro ADME; conditions: 20 μM anemarsaponin BII, data not shown
Procedure: as §1

[9] = 100 μM anemarsaponin BII, residual activity
[10] = HLMs, 0-100 μM anemarsaponin BII

T1 sequence (P08684 whole entry): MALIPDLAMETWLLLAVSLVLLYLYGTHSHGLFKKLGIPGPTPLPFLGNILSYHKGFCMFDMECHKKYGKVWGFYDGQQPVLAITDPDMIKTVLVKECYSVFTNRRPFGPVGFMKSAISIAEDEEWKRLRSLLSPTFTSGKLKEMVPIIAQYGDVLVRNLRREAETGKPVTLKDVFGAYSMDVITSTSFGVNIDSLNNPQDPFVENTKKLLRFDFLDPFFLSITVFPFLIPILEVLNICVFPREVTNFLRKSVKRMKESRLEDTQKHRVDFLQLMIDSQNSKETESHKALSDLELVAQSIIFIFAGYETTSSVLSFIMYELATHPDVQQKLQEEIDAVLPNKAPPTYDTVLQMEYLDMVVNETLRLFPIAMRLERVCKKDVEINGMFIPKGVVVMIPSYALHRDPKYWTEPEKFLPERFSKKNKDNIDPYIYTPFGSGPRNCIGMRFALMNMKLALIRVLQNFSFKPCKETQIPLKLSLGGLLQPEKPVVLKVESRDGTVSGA
T7 sequence (P05181 whole entry): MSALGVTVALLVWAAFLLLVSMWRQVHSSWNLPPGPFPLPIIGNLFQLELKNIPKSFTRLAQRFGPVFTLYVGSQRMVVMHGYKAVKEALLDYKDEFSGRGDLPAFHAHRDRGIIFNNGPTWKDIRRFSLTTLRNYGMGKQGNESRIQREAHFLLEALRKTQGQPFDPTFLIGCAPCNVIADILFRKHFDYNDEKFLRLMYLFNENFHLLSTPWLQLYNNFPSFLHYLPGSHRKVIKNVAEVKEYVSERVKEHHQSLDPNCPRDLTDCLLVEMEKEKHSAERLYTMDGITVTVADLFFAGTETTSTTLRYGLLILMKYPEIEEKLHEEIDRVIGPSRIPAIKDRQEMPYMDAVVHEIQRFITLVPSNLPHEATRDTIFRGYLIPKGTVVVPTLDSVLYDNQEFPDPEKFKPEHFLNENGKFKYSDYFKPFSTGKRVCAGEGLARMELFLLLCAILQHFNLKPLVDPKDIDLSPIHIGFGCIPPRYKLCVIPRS
T8 sequence (P10635 whole entry): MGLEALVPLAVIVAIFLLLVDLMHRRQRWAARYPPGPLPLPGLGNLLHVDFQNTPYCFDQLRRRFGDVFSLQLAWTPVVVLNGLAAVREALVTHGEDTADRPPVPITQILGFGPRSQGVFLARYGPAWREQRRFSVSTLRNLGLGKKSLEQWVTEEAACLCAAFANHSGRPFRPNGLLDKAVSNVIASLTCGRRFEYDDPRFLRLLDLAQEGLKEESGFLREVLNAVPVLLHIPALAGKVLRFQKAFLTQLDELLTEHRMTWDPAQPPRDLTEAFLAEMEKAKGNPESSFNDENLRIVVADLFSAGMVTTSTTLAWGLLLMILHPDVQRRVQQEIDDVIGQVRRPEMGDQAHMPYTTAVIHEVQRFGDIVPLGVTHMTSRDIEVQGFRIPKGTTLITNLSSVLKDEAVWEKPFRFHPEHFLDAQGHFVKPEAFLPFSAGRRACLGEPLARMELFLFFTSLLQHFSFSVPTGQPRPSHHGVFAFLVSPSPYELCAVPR

Question: With `CC(CCC1(O)OC2CC3C4CCC5CC(OC6OC(CO)C(O)C(O)C6OC6OC(CO)C(O)C(O)C6O)CCC5(C)C4CCC3(C)C2C1C)COC1OC(CO)C(O)C(O)C1O` (stereo not shown) [anemarsaponin BII, Anemarsaponin BII] as the compound, how does the “effect of incubation time on inhibition of CYP3A4” value (CYP3A4 [1]; 20 μM anemarsaponin BII) read?
Answer: Its value is “increased with the incubation time”.

Question: What about the kinact (CYP3A4 [1]; human, human liver microsomes, NADPH, 0–50 μM anemarsaponin BII, 0-30 min, non-linear regression) of the same compound?
Answer: The kinact was 0.000883 s⁻¹.

Question: And the “effect on activity of CYP2C8” value (CYP2C8)?
Answer: Its value is “only the activity of CYP3A4, 2D6 and 2E1 was significantly inhibited”.

Question: What about the “effect on activity of CYP2C19” value (CYP2C19) of the same compound?
Answer: The value was “only the activity of CYP3A4, 2D6 and 2E1 was significantly inhibited”.

Question: What about the “effect on activity of CYP2C9” value (CYP2C9) of the same compound?
Answer: Its value is “only the activity of CYP3A4, 2D6 and 2E1 was significantly inhibited”.

Question: What about the “effect on activity of CYP1A2” value (CYP1A2) of the same compound?
Answer: Its value is “only the activity of CYP3A4, 2D6 and 2E1 was significantly inhibited”.

Question: What about the “effect on activity of CYP2A6” value (CYP2A6) of the same compound?
Answer: The value was “only the activity of CYP3A4, 2D6 and 2E1 was significantly inhibited”.

Question: What about the “half-life (t1/2)” value [2] of the same compound?
Answer: The value was 2.7 h.

Question: What about the “activity of CYP2E1 decreased to (relative to untreated HLMs)” value (CYP2E1 [3]; [9]) of the same compound?
Answer: The value was 23.45%.

Question: What about the “inhibition model CYP2E1 (Lineweaver–Burk)” value (CYP2E1 [3]; HLMs) of the same compound?
Answer: Its value is “competitive”.

Question: What about the IC50 (CYP2E1 [3]; HLMs) of the same compound?
Answer: Its IC50 is 19.7 µM.

Question: And the Ki (CYP2E1 [3]; HLMs, 25–250 μM chlorzoxazone, competitive model)?
Answer: The Ki was 9.82 µM.

Question: And the IC50 (CYP2E1 [3]; human, pooled human liver microsomes, pH 7.4, probe chlorzoxazone (6-hydroxylation), HLMs)?
Answer: Its IC50 is 19.3 µM.

Question: What about the Cmax [4] of the same compound?
Answer: The Cmax was 271.22 ng/mL.

Question: And the t1/2 [4]?
Answer: The t1/2 was 3.21 h.

Question: What about the “activity of CYP3A4 decreased to (relative to untreated HLMs)” value (CYP3A4 [5]; [9]) of the same compound?
Answer: The value was 15.65%.

Question: And the “inhibition model CYP3A4 (Lineweaver–Burk)” value (CYP3A4 [5]; HLMs)?
Answer: The value was “non-competitive”.

Question: And the IC50 (CYP3A4 [5]; [10])?
Answer: The IC50 was 13.7 µM.

Question: What about the Ki (CYP3A4 [5]; HLMs, 20–100 μM testosterone, non-competitive model) of the same compound?
Answer: The Ki was 6.72 µM.

Question: And the “activity of CYP2D6 decreased to (relative to untreated HLMs)” value (CYP2D6 [6]; [9])?
Answer: Its value is 18.79%.

Question: And the “inhibition model CYP2D6 (Lineweaver–Burk)” value (CYP2D6 [6]; HLMs)?
Answer: Its value is “competitive”.

Question: What about the IC50 (CYP2D6 [6]; [10]) of the same compound?
Answer: Its IC50 is 16.3 µM.

Question: And the Ki (CYP2D6 [6]; HLMs, 10–50 μM dextromethorphan, competitive model)?
Answer: The Ki was 8.26 µM.

Question: What about the “effect of incubation time on inhibition of CYP2E1” value (CYP2E1 [7]) of the same compound?
Answer: The value was “not affected by the incubation time”.

Question: What about the “effect of incubation time on inhibition of CYP2D6” value (CYP2D6 [8]) of the same compound?
Answer: Its value is “not affected by the incubation time”.
